According to patent US20050053669A1, “Administration form for the oral application of poorly soluble acidic and amphorteric drugs” (Boehringer Ingelheim International GmbH, priority 2003, published 2005):

What was measured:
[1] = phase I study, plasma levels on increasing the dose; assay type: in vivo, human
Description: Generally increasing the dose in order to compensate for the reduced bioavailability in patients is frequently undesirable because of the waste of active substance and the greater burden on the patient and the associated risk of side effects, for example, or even totally impossible, on the grounds of drug safety.

[2] = solubility of the active substance; assay type: physicochemical
Experimental: The solubility of a compound may be determined by dispersing an excess of the compound at ambient temperature in the medium in question and shaking it vigorously for a defined length of time (approx. 1 to 24 h) until equilibrium is achieved. After filtration the pH is determined in the clear filtrate and the concentration of the dissolved substance is determined by spectral photometry or some other suitable analytical process.

plasma levels achieved with 200 mg ([1]; 200 mg compared with 600 mg) | higher plasma levels on increasing the dose ([1]; dose increased from 100 to 600 mg) | solubility in an acidic medium [2] | Compound
equal to those obtained with 600 mg | about 50% | – | O=C(O)CCC/C=C(\c1ccc(CCNS(=O)(=O)c2ccc(Cl)cc2)cc1)c1cccnc1 [DT-TX 30]
– | – | readily soluble | CCCc1nc2c(C)cc(-c3nc4ccccc4n3C)cc2n1Cc1ccc(-c2ccccc2C(=O)O)cc1 [telmisartan]
